Data on seven molecules can be found in patent US6605712B1, “Gene transcription and ionizing radiation: methods and compositions” (Arch Development Corporation, priority 1990, dated 2003).

“Also recorded” adds a separate entry of the source.

Series [1] has as its system HL-525 cells. Put plainly: Nuclear run-on assay of c-Jun transcription. The series is classed as cell-based, human. To be noted: radiation alone 4-fold increase. Here is the method: Nuclear run-on assays. Nuclei were isolated from 10^8 cells and suspended in 100 μl glycerol buffer (50 mM Tris-HCl, pH 8.3, 40% glycerol, 5 mM MgCl2, and 0.1 mM EDTA). An equal volume of reaction buffer (10 mM Tris-HCl, ph 8.0, 5 mM MgCl2, 100 mM KCl, 1 mM ATP, 1 mM CTP, 1 mM GTP, and 5 mM dithiothreitol) was added to the nuclei in suspension and incubated at 26° C. for 30 min with 250 μCi [α-^32P]UTP (3000 Ci/mmol; Dupont, Boston, Mass.). The nuclear RNA was isolated as described and hybridized to the following DNAs: 1) a PstI digest of the pA1 plasmid containing a fragment of the chicken β-action gene; and 2) a BamHI/EcoRI digest of the pBluescript SK(+) plasmid containing a fragment of the human c-Jun gene. The digested DNAs were run in 1% agarose gels and transferred to nitrocellulose filters. Hybridizations were performed with 10^7 cpm of ^32P-labeled RNA/ml in 10 mM Tris-HCl, ph 7.5, 4×SSC, 1 mM EDTA, 0.1% SDS, 2×Denhardt's solution, 40% formamide, and 100 μg/ml yeast tRNA for 72 h at 42° C. The filters were washed in: a) 2×SSC-0.1% SDS at 37° C. for 30 min; b) 200 ng/ml RNase A in 2×SSC at room temperature for 5 min; and c) 0.1×SSC-0.1% SDS at 42° C. for 30 min.

Series [2] relates to HL-525 cells. Put plainly: Northern analysis of c-Jun mRNA. The series is classed as cell-based, human. The protocol:
(§1) Cell culture. Clone HL-205 was isolated from the human HL-60 myeloid leukemia cell line. The phorbol ester-resistant variant of HL-60 cells, designated HL-525, was isolated by exposing wild-type cells to low concentrations of 12-0-tetradecanoylphorbol-13-acetate (TPA; 0.5 to 3 nM) for 102 passages. These cells were maintained in RPMI 1640 medium containing 20% fetal bovine serum (FBS) with 1 mM L-glutamine, 100 U/ml penicillin and 100 μg/ml streptomycin. Irradiation was performed at room temperature using a Gamma cell 1000 (Atomic Energy at Canada Ltd., Ontario) with a ^137CS source emitting at a fixed dose rate of 14.3 Gray (Gy)/min as determined by dosimetry.
(§2) Isolation and analysis of RNA. Total cellular RNA was purified by the guanidine isothiocyanate-cesium chloride technique. The RNA was analyzed by electrophoresis through 1% agarose-formaldehyde gels, transferred to nitrocellulose filters, and hybridized to the following 32P-labeled DNA probes: 1) the 1.8-kb BamHI/EcoRI insert of a human c-Jun gene purified from a pBluescript SK(+) plasmid; 2) the 1.5-kb EcoRI fragment of the murine Jun-B cDNA from the p465.20 plasmid; 3) Jun-D; 4) the 0.9-kb ScaI/NcoI insert of human c-fos gene purified from the pc-fos-1 plasmid; 5) the 2.0-kb PstI insert of a chicken β-actin gene purified from the pA1 plasmid; and 6) the 1.9-kb BamHI/PstI insert of a human TNF cDNA purified from the pE4 plasmid. Hybridizations were performed at 42° C. for 24 h in 50% (v/v) formamide, 2×SSC, 1×Denhardt's solution, 0.1% SDS, and 200 μg/ml salmon sperm DNA. The filters were washed twice in 2×SSC-0.1% SDS at room temperature and then in 0.1×SSC-0.1% SDS at 60° C. for 1 hour.

Series [3] deals with HL-205 cells. The experiment in a line: Northern analysis of c-Jun mRNA. The series is classed as cell-based, human. The protocol:
as §1, §2

The test system of series [4] is RIT-3 cells. The experiment in a line: GAL4-Jun chimeric / G5BCAT co-transfection CAT assay. In kind it is cell-based, human. The text has this:
HeLa and RIT-3 cells were transfected with two plasmids. Plasmid pSG-Jun5-253 contained the SV40 promoter (not transcriptionally responsive to radiation) upstream of an encoding region that encoded a chimeric protein (GAL4-Jun) comprising a sequence for Δ, A1, and A2 (Baichwal, 1990) and the DNA binding domain of the yeast GAL4 gene (the DNA binding domain of Jun was replaced with the DNA binding domain of the GAL4 gene, Baichwal, 1990). A second plasmid, G5BCAT was constructed to contain the DNA sequence that binds Gal4 protein placed 5′ of the Elb TATA box and upstream of the CAT reporter gene (Baichwal, 1990).
Two plasmids were transfected into HeLa and RIT-3 cells to study activation of the transcriptional potential of Jun protein following irradiation. pSG-Jun5-253 contains the SV40 promoter, which is not transcriptionally responsive to radiation, upstream of the coding sequence for Δ, A1, and A2 (Baichwal, 1990). The DNA binding domain of Jun was replaced with the DNA binding domain of the yeast GAL4 gene which encodes a protein involved in yeast transcriptional regulation (Baichwal, 1990). A second plasmid, G5BCAT contains the DNA sequence which binds Gal4 protein placed 5′ of the E1b TATA box upstream of the CAT reporter gene (Baichwal, 1990). […]

In series [5] the test system is c-Jun gene expression. The following applies: other studies; cited from earlier work.
The subject of series [6] is Egr-1 and Jun transcripts in cell lines 293 and SQ-20B. The experiment in a line: Northern blot of Egr-1 and Jun transcripts after x-irradiation with inhibitors. In kind it is cell-based. To be noted: for effect on x-ray-induced increase in Egr-1 and Jun transcripts: treatment prior to irradiation. The protocol: Cell line SQ-20B was pretreated with 1 μM TPA for 40 hours to down regulate PKC and then stimulated with TPA, serum, or x-ray (20 Gy). Controls included x-ray without TPA pretreatment, TPA (50 nM) without TPA pretreatment and untreated cells. RNA was isolated after one hour and hybridized to Egr-1. SQ-20B cells were preincubated with 100 μM H7 (1-(5-isoquinolinylsulfonyl)-2-methyl piperazine) or 100 μM HA1004 (N-[2-methyl-amino]ethyl)-5-isoquino-linesulfonamide) (Seikagaku America, Inc., St. Petersberg, Fla.) for 30 minutes or TPA pretreatment (1 μM) for 40 hours and followed by exposure to 20 Gy x-irradiation. RNA was extracted one hour after irradiation. Positive control cells treated under the same conditions but in the absence of inhibitor also received 20 Gy, while negative control cells received neither H7 nor X-ray. RNA was extracted at one hour after 20 Gy without inhibitor. Northern blots were hybridized to Egr-1 or 7S. 293 cells pretreated with the above inhibitors were irradiated, RNA was extracted after 3 hours and the Northern blot was hybridized to Jun and 7S probes.

Series [7] deals with SQ-20B and SCC-61 cells.
The subject of series [8] is TNF-α-producing sarcomas (STSAR-5, -13, -33, and -43).
Series [9] concerns cell line SQ-20B. Put plainly: Colony-forming radiation-survival assay with TNF-α. The series is classed as cell-based, human.
For series [10], the system named is cell line STSAR-33. The experiment in a line: Colony-forming radiation-survival assay with TNF-α. In kind it is cell-based, human.
In series [11] the test system is Cell lines STSAR-13 and STSAR-43. Put plainly: Colony-forming radiation-survival assay with TNF-α. In kind it is cell-based, human.
The subject of series [12] is 12 human epithelial tumor cell lines. The following applies: cited from earlier work.
For series [13], the system named is cell line HNSCC-68. The experiment in a line: Colony-forming radiation-survival assay with TNF-α. The series is classed as cell-based, human. The following applies: nonlethal TNF-α 10 units/ml.
In series [14] the test system is cell line STSAR-5. Put plainly: Colony-forming radiation-survival assay with TNF-α. In kind it is cell-based, human. The following applies: STSAR-5, 100-700 cGy.

As to `CC(=O)N[C@@H](CS)C(=O)O` [NAC, N-acetyl-L-cysteine], the “inhibition of radiation-increased rate of c-Jun transcription” value in series [1] was about 90%. For the same molecule, in series [2], the “effect on H2O2-induced c-Jun expression” value was “similarly inhibited”, the “effect on ara-C-induced c-Jun gene induction” value is listed as “no detectable effect on induction of the c-Jun gene; also recorded: no detectable effect on ara-C-induced increases in c-Jun transcripts” and the “effect on x-ray-induced c-Jun expression” value is recorded as “inhibited”. In addition, in series [3] (30 mM), the “effect on constitutive levels of c-Jun transcripts” value was “little if any effect on constitutive levels of c-Jun transcripts” and the “inhibition of x-ray-induced increases in c-Jun expression” value is listed as “over 90%”.
With `OO` [Plasmid H2O2, H2O2], the “effect of agent alone on c-Jun expression” value in [2] was “transiently induced c-Jun expression; also recorded: increased c-Jun expression”.
As for `CC1CNCCN1S(=O)(=O)c1cccc2cnccc12` (centres unmarked) [Plasmid H7, 1-(5-isoquinolinylsulfonyl)-2-methyl piperazine], the “effect on x-ray induced increase in CAT activity” value in [4] (added to RIT-3 cells transfected with pSG-Jun5-235 and G5BCAT) is “abrogated the x-ray induced increase in CAT activity”. Moreover, the “effect on x-ray-induced c-Jun expression” value in [5] is reported as “block x-ray-induced c-Jun gene product expression; also recorded: inhibited”. The “effect on x-ray-induced increase in Egr-1 and Jun transcripts” value (from here on “effect on x-ray-induced increase”) in series [6] is “attenuated the increase in Egr-1 and Jun transcripts; also recorded: attenuation of Egr-1 and Jun gene induction by ionizing radiation”.
For `CCCCCCCCCCCCCC(=O)O[C@@H]1[C@@H](C)[C@@]2(O)[C@@H](C=C(CO)C[C@]3(O)C(=O)C(C)=C[C@@H]23)[C@H]2C(C)(C)[C@]12OC(C)=O` [TPA, 12-0-tetradecanoylphorbol-13-acetate], the “increase in CAT activity following TPA stimulation” value in [4] (HeLa and RIT-3 transfectants with pSG-Jun5-253 and G5BCAT) came out at 3.5 fold. Moreover, the “effect on x-ray-induced increase” value in series [6] is “attenuated the increase in Egr-1 and Jun transcripts; also recorded: attenuation of Egr-1 and Jun gene induction by ionizing radiation”. In [2], the “effect on expression of Jun-B, Jun-D, c-fos, fos-B” value was “little if any effect on expression of these genes” and the “effect on x-ray-induced c-Jun expression” value is reported as “blocks x-ray-induced increases in c-Jun expression”. Moreover, in series [2] (pretreatment), the “block of H2O2-induced increases in c-Jun expression” value is given as 80%. Also, the “block of x-ray induced increases in c-Jun expression” value in [2] (pretreatment 36-39 hours) was “over 75%”. Besides, the “effect on c-Jun expression” value in [3] (agent alone) is “increases in c-Jun expression that were detectable at 6 hours and reached maximal levels by 24 hours”.
In the case of `CCC/C=C/C=C/C(=O)O[C@H]1/C(=C/C(=O)OC)C[C@H]2C[C@H]([C@@H](C)O)OC(=O)C[C@H](O)C[C@@H]3C[C@H](OC(C)=O)C(C)(C)[C@](O)(C[C@@H]4C/C(=C/C(=O)OC)C[C@H](/C=C/C(C)(C)[C@]1(O)O2)O4)O3` [bryostatin], in series [2], the “effect on H2O2-induced c-Jun expression” value is given as “no detectable effect” and the “effect on x-ray-induced c-Jun expression” value is given as “little if any effect on the induction of c-Jun transcripts by ionizing radiation”.
With `C[C@@H]1C[C@@H]([C@H](O)CC2CC(=O)NC(=O)C2)C(=O)[C@@H](C)C1` [cycloheximide], the “Jun mRNA after irradiation in pretreated cells” value in series [6] (293 cells pretreated with CHI) is “persistent elevation of Jun mRNA at 6 hours”. The “Egr-1 mRNA after irradiation in pretreated cells” value in [6] (SQ-20B cells pretreated with CHI) is “persistent elevation of Egr-1 at 3 hours”. Further, the “effect of treatment alone on Egr-1 and Jun transcripts” value in series [6] (normalized to 7S, no irradiation) is “low but detectable increase in Egr-1 and Jun transcripts”. The “effect on x-ray-induced increase” value in series [6] was “superinduction of Jun and Egr-1”.
For the molecule TNF-α, the cytotoxicity entry in [7] and in series [8] was “cytotoxic” in each case. For the same molecule, the “reduction of plating efficiency (PE)” value is given as 60-80% in series [7] (1000 units/ml) and 60-90% in series [8] (1000 units/ml). Further, in series [9] (SQ-20B, FIG. 1B), the “killing with TNF-α alone” value is 85%. In addition, the “radiosensitivity (D0)” value is 130.4 cGy in series [9] (TNF-α 1000 units/ml added 24 hr before x-rays, 239 cGy without TNF-α) and 60.4 cGy in series [10] (TNF-α 10 units/ml added 20 hr before irradiation, 80.4 cGy without TNF-α). In addition, in series [9] (TNF-α added after irradiation), the “effect on cell killing by radiation” value is given as “did not enhance cell killing by radiation”. Further, the “interaction between TNF-α and radiation” value is listed as “synergistic; also recorded: enhanced killing by radiation” in series [10] (STSAR-33, TNF-α 10 units/ml); “no interaction was observed” in series [11]; “additive” in series [14]. Besides, the “plating efficiency (PE)” value in series [10] (TNF-α at 1000 units/ml) is given as 30%. Also, in series [12], the “concentrations with cytotoxic effects” value was 10 to 1000 units/ml. For the same molecule, in series [12] (seven of those ten cell lines), the “killing by TNF and x-rays combined” value is “synergistic or additive killing”. Besides, in series [13], the “effect on radiation killing” value is recorded as “enhanced radiation killing”.
